{
  "source": "patent US5482954A",
  "about": "“Signal transduction inhibitor triazole and diazole compounds” (priority 1994, dated 1996)",
  "key": {"[1]": {"test_system": "MDA-231 human breast cancer cells", "assay": "AMF-stimulated cell motility", "type": "cell-based", "conditions": "overnight exposure; data not shown"}, "[2]": {"test_system": "5R cells", "assay": "Cell adhesion to tissue culture plastic", "type": "cell-based, rat", "conditions": "0.03-10 μg/mL, 2 to 48 hr preincubation", "method": "An adhesion assay was developed using tissue culture plastic petri dishes as the substrate. Aliquots of cells treated similarly to those in the cell motility assay were plated in triplicate onto the dishes and incubated for 90 rain at 37° C. Cells which were either poorly adherent or nonadherent were gently washed off with PBS. The remaining cells were stained with Diff Quik™ (from Baxter Scientific Products, McGaw Park. Ill., USA). Adherence was quantitated using laser densitometry and values were calculated as a percentage of the control adherence.\nCells were preincubated with compound 1 (0.03-10 μg/mL) for periods of 2 to 48 hr prior to the adhesion assay. In addition, compound 1 remained present during the assay. […] Maximal inhibition of adhesion was observed following overnight exposure of the cells to compound 1."}, "[3]": {"test_system": "T24 (EJ) bladder", "assay": "Growth of tumor cell lines", "type": "cell-based", "conditions": "T-24 human bladder cancer with activated H-ras", "method": "In one study, the cells were continuously exposed to 20 μM compound 1, and growth inhibition was measured. In a second study, cell lines which only grow in suspension were plated in 24 well plates (50,000 cells/well) and were incubated with increasing concentrations of compound 1. After 72 hr in culture, the cells were harvested, centrifuged,resuspended in a small volume. The number of remaining cells and their viability was determined using a hemocytometer."}, "[4]": {"test_system": "A2058 cells", "assay": "Proliferation of A2058 cells (monolayer growth, crystal violet)", "type": "cell-based, human", "method": "For the clonogenic assay, aliquots of 50,000 cells per well (24 well plates) were grown under standard tissue culture conditions in the presence of increasing doses or test compound (0-10 μg/mL) or vehicle control. After 96 hr, the cells were gently washed with PBS, fixed, and stained with 0.5% crystal violet nuclear stain in 20% methanol. Excess stain was removed with tap water and bound stain was eluted with an equal volume solution of 01N sodium citrate (pH 4.2) and absolute ethanol. Optical density (O.D.) of eluted crystal violet stain was determined at 540 nm. The results of dose-dependent inhibition of tumor cell proliferation by compound 1 are shown in FIG. 5, in which the data are expressed as percent of untreated control cell proliferation for each cell type. The degree of inhibition varied with the cell type and was maximal (76%) for the A2058 cell line.\nA2058 human melanoma cells were used to test the effect of compounds 1 and 3-25 on cellular proliferation. The cells were cultured in the presence of the test compounds (10 μM) for 96 hr. fixed and stained with crystal violet as described above. Growth inhibition was determined as a percent of control growth (using either DMSO or PEG-400 as the vehicle) for each compound. Each experiment was run a minimum of three times and the average of the results for each compound is provided in Table H and in FIGS. 20A and 20B."}, "[5]": {"test_system": "A2058 cells", "assay": "AMF-stimulated phosphatidyl inositol metabolism", "type": "cell-based, human", "method": "This example illustrates the effect of compound 1 on the generation and release of phosphatidyl inositol from either A2058 cells (stimulated with autocrine motility factor) or CHOm5 cells (stimulated with carbachol).\nA2058 cells were incubated with compound 1 (1.0 μg/mL) for 24 hr, then labelled overnight with [^3 H]inositol in serum-free, low inositol IMEM (LI-IMEM). Cells were then harvested, suspended, and incubated in LI-IMEM containing 10 mM LiCl for 30 min. The metabolism assay was initiated by the addition of either AMF or serum-free medium control to aliquots of 100,000 cells. The aliquots were incubated at 37° C. for 15 and 120 min, then washed twice with ice-cold PBS and extracted with chloroform:methanol (1:2). The total inositol phosphates were removed using Dowex anion exchange column chromatography eluted with ammonium formate 1.0 M/formic acid 0.1 M buffer. Total inositol phosphates and unincorporated total intracellular [^3 H]inositol were quantitated by […]. Data are expressed as a ratio of total inositol phosphates to total unincorporated [^3 H]inositol."}, "[6]": {"test_system": "CHOm5 cells", "assay": "Carbachol-stimulated arachidonic acid release", "type": "cell-based, Chinese hamster", "description": "This example illustrates the effect of selected compounds on the release of arachidonic acid from carbachol-stimulated CHOm5 cells. Carbachol is a muscarinic agonist which in the muscarinic receptor transfected CHO cells stimulates the activation of phospholipase A2, resulting in arachidonic acid release and metabolism. Downstream metabolites of arachidonic acid, prostaglandins and leukotrienes are also second messengers.\nThe effect of compound 1 on arachidonic acid release from CHOm5 cells was determined by incubating the cells to isotopic equilibrium with labelled arachidonic acid, then washing the cells twice with 1 mL of serum-free media supplemented with 20 mM HEPES and 0.2% bovine serum albumin (fatty acid free) to trap the unincorporated labelled arachidonic acid, and then simultaneously adding carbachol (100 μM) and increasing concentrations of 1. After 15 min, the reaction was stopped by removing the incubation media which was then centrifuged at 10,000×g to eliminate any nonadherent cells."}, "[7]": {"test_system": "CHOm5 cells", "assay": "Calcium ionophore A23187-stimulated 45Ca2+ influx", "type": "cell-based, Chinese hamster", "conditions": "Cricetulus griseus; FIG. 13, A23187", "method": "Calcium influx was determined using two methods. The first method involved the use of ^45 Ca^2+, while the second method utilized a fluorescent intracellular calcium chelator, Fura-2. The method using Fura-2 is semi-quantitative and is preferred for kinetic analysis and screening whereas the ^45 Ca^2+ method is quantitative.\nCHOm5 cells in monolayer culture were washed free of serum-containing media and incubated with either carbachol or the calcium ionophore A23187 (from Molecular Probes, Eugene, Oreg., USA) in the presence of ^45 Ca^2+ and defined buffer (E2 medium with 0.1 mM MgCl2 and 1.0 mM CaCl2). After incubation for 5 min, the radioactive buffer was rapidly and repeatedly washed off with media containing LaCl3, a competitor of calcium efflux. The cell monolayer was solubilized and the calcium uptake was determined by scintillation counting."}, "[8]": {"test_system": "OVCAR3 human ovarian cancer", "assay": "Survival after intraperitoneal treatment", "type": "in vivo, nude mice", "conditions": "50 mg/kg/d ip", "description": "This example illustrates the effect of compound 1 on the survival of nude mice. The mice had been intraperitoneally injected with OVCAR3 human ovarian cancer cells followed, after three weeks, by intraperitoneal injection of 1.\nThe OVCAR3 human ovarian cancer animal model accurately approximates the clinical presentation of stage III-IV ovarian cancer of peritoneal carcinomatosis. Untreated, OVCAR3 tumor is lethal to nude mice.\nSix-week-old nude mice were inoculated intraperitoneally with 3.4×10^7 OVCAR3 human ovarian cancer cells. After a three week period, all animals had grossly distended abdomens due to OVCAR3 ascites. Two groups of animals (four each) were paired for relative severity of ascites and treatment was initiated. Compound 1, 50 mg/kg/d in 60% DMSO (200 μL aliquot) or a vehicle alone, was administered via daily intraperitoneal injection. Overall survival from start of treatment was the study endpoint. Relative survival improvement was calculated as mean treatment group survival divided by mean control group survival."}},
  "data": [
    {"smiles": "NC(=O)c1nnn(Cc2cc(Cl)c(C(=O)c3ccc(Cl)cc3)c(Cl)c2)c1N", "note": "[Compound 1]", "values": [
      {"measurement": "motile response to AMF", "setting": "[1]", "result": "inhibited"},
      {"measurement": "inhibition of cell adhesion", "setting": "[2]", "result": "dose-dependent inhibition of cell adhesion"},
      {"measurement": "inhibition of proliferation", "setting": "[3]", "result": "inhibited proliferation"},
      {"measurement": "dose dependent inhibition of proliferation", "setting": "[4]; FIG. 20A, monolayer growth", "result": "Dose dependent inhibition of proliferation"},
      {"measurement": "activity at 10 µM", "setting": "[4]; Homo sapiens, A2058, Table H, 10 μM, 96 hr, read-out: GROWTH (% OF CONTROL)", "result": "36.4 ± 6", "unit": "%"},
      {"measurement": "inhibition of AMF-stimulated phosphatidyl inositol hydrolysis", "setting": "[5]; 1.0 μg/mL, 24 hr", "result": "significantly inhibited"},
      {"measurement": "inhibition at 1 µg/mL", "setting": "[5]; Homo sapiens, A2058, 1.0 μg/mL, 24 hr, read-out: inhibition of AMF-stimulated phosphatidyl inositol hydrolysis", "result": "~45", "unit": "%"},
      {"measurement": "effect on unstimulated cells (inositol phosphates)", "setting": "[5]; treated, unstimulated cells", "result": "no appreciable effect"},
      {"measurement": "IC50", "setting": "[6]; Cricetulus griseus, 0.25 h, carbachol 100 μM, 15 min", "result": "5200 ± 800", "unit": "nM"},
      {"measurement": "Arachidonic Acid Release (% of Control)", "setting": "[6]; Table K", "result": "50.9 ± 9 % of Control"},
      {"measurement": "IC50", "setting": "[7]", "result": "359 ± 11", "unit": "nM"},
      {"measurement": "increase of overall survival", "setting": "[8]", "result": 220, "unit": "%"},
      {"measurement": "overall survival from start of treatment", "setting": "[8]; control 7.25±4.4 days", "result": "16.0 ± 2.5", "unit": "days"}
    ]}
  ]
}
